# Laboratory results reported in patent publication US11091472B2, “PI-kinase inhibitors with anti-infective activity” (The Board of Trustees of the Leland Stanford Junior …, priority 2016, dated 2021).
# “Also recorded” adds a separate entry of the source.
# Assays:
# [1] = molecular target: PI4KIIIA (Homo sapiens (Human), UniProt P42356); experiment: PI4KIIIα kinase assay (immunoprecipitated HA-tagged enzyme, [γ-32P]-ATP); format: biochemical; details: kinase activity
# [2] = molecular target: PI3KC2G (Homo sapiens (Human), UniProt O75747); experiment: PI3KC2G kinase assay; format: biochemical; details: kinase activity
# Sequence of PI3KC2G (O75747 whole entry): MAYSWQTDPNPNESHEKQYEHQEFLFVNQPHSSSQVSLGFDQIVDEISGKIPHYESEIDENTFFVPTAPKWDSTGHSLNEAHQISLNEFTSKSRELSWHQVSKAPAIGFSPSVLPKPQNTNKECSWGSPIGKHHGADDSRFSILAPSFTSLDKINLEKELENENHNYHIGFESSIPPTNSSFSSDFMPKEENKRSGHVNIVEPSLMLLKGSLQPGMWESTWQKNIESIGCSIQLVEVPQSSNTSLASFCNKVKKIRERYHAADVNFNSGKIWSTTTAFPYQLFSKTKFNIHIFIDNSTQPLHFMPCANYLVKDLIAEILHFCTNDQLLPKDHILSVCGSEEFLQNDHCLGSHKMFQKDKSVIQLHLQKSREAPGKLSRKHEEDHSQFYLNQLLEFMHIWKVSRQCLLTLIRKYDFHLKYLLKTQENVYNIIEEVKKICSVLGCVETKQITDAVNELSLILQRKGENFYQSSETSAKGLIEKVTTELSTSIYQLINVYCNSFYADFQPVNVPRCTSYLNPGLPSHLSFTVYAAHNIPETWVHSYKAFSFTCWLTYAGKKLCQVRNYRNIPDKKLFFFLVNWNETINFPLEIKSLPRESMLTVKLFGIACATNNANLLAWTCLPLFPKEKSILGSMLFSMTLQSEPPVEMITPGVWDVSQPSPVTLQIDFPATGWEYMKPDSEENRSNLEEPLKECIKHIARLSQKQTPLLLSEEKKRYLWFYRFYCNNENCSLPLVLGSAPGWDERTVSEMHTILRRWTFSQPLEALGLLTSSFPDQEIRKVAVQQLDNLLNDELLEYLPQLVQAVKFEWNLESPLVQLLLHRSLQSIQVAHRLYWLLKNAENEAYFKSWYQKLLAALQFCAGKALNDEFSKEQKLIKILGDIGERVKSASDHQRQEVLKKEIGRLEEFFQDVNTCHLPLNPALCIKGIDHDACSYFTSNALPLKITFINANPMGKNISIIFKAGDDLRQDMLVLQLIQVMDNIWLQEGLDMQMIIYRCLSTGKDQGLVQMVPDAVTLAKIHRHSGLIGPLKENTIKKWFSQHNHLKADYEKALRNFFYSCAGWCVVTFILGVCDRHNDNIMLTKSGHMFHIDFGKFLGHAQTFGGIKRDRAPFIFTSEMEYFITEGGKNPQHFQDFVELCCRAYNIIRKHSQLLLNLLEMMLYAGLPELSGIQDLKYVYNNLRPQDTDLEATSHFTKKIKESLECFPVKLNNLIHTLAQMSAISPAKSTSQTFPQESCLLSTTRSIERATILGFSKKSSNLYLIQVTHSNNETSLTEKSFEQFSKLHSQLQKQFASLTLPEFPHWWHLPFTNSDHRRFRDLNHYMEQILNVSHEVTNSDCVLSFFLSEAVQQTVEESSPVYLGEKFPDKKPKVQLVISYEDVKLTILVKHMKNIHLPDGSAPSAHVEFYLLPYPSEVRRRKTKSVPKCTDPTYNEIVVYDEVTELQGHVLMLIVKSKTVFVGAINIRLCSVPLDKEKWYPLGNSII
# Description: PI-kinase assay: Compounds are tested in C.1.1. PI kinase assays as described by Shokat et al., “A membrane capture assay for lipid kinase activity.” Nat. Protoc.
# (§1) Selected compounds of Table 1 and 2 were prepared and tested for inhibition activity in a variety of kinase assays.
# [3] = molecular target: PI3K p110g (Homo sapiens (Human), UniProt P48736); experiment: PI3K p110g kinase assay; format: biochemical; details: kinase activity
# [4] = molecular target: PI4KIIIB (Bos taurus (Bovine), UniProt O02810); experiment: PI4KIIIβ kinase assay (immunoprecipitated HA-tagged enzyme, [γ-32P]-ATP); format: biochemical; details: kinase activity
# Sequence of PI4KIIIB (O02810 whole entry): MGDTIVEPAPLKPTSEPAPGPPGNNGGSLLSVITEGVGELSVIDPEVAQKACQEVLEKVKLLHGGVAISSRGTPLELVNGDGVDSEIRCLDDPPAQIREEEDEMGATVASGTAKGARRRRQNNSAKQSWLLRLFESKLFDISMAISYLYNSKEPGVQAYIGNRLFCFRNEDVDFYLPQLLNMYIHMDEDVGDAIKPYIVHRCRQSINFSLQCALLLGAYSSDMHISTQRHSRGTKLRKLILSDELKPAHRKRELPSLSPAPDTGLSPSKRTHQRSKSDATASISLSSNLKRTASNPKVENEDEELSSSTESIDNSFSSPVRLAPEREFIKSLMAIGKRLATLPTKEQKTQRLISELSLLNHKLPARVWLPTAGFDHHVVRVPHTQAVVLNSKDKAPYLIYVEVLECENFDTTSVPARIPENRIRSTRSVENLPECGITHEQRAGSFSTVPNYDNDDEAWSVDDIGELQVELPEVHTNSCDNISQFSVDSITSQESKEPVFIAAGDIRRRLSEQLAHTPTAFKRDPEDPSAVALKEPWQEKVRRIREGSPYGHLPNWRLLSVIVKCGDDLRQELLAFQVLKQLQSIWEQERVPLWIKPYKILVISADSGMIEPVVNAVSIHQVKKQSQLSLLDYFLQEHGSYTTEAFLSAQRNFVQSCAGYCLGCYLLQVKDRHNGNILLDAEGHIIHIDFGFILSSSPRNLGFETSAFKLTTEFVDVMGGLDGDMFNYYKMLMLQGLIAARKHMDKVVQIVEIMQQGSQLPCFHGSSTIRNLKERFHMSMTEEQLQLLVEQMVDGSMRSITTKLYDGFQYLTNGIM
# [5] = molecular target: PI3K p110a (Homo sapiens (Human), UniProt P42336); experiment: PI3K p110a kinase assay; format: biochemical; details: kinase activity
# Sequence of PI3K p110a (P42336 whole entry): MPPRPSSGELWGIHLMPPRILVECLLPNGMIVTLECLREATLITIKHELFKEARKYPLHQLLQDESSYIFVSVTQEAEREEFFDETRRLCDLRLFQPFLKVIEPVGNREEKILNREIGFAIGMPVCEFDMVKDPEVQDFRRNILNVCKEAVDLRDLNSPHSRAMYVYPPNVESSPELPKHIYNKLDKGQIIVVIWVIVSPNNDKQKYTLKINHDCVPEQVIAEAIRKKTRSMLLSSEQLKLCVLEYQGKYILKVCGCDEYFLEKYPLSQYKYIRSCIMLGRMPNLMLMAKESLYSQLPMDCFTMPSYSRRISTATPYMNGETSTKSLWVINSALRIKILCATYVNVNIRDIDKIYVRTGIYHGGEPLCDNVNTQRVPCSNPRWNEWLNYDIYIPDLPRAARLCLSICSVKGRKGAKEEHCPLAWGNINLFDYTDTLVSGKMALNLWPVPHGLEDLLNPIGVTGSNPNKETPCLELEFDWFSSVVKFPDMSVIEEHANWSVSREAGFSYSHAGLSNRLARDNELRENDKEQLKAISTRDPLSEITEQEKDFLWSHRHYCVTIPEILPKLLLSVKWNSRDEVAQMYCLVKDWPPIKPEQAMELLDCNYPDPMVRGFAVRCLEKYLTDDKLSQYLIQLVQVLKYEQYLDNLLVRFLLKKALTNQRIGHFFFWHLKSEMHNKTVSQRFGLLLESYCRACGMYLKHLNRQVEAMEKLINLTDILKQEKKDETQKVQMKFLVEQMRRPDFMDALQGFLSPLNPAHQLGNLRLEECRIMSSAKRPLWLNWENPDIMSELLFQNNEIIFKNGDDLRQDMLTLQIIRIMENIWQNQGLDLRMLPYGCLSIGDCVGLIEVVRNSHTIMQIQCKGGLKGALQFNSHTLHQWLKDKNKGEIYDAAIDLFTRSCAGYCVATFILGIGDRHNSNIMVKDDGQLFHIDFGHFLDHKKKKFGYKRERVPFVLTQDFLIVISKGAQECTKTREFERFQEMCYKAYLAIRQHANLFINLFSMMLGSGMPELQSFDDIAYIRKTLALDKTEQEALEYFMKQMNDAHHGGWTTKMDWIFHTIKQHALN
# Sequence of PI3K p110a (P27986 whole entry partner): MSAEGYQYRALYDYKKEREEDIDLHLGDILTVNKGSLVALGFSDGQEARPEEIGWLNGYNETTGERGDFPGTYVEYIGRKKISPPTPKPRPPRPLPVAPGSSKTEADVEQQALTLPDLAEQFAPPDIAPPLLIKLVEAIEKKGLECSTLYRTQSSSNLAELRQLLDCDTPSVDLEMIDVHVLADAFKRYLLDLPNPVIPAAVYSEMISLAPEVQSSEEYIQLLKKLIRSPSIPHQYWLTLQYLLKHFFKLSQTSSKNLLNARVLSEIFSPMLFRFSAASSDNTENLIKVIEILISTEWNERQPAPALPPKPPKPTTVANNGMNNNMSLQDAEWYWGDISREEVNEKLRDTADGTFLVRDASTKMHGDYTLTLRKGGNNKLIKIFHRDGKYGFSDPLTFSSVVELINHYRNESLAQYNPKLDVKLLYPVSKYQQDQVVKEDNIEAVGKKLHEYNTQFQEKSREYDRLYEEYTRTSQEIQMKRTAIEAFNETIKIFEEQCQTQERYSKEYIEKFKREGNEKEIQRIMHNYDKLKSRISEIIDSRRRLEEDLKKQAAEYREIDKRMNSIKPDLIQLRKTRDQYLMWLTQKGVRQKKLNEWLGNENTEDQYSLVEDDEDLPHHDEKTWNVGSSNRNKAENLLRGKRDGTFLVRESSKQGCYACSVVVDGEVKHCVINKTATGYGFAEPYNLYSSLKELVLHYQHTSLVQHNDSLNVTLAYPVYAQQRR
# [6] = system: Coxsackie virus B3; experiment: Coxsackie virus B3 cell based antiviral assay; details: Enterovirus B
# [7] = system: Ebola; experiment: microbe, parasite or virus in culture; format: cell-based; details: Zaire ebolavirus, read-out: Ebola EC50
# [8] = molecular target: PI3KC2B (Homo sapiens (Human), UniProt O00750); experiment: PI3KC2B kinase assay; format: biochemical; details: kinase activity
# Description: PI-kinase assay: Compounds are tested in C.1.1. PI kinase assays as described by Shokat et al., “A membrane capture assay for lipid kinase activity.” Nat. Protoc. 2007; 2(10):2459-66.
# as §1
# [9] = system: NV (GT1); experiment: NV (GT1) cell based antiviral assay
# Description: Compounds of interest were tested in a variety of cell based assays for antiviral activity.
# [10] = system: Influenza A virus H1N1; experiment: Influenza A virus H1N1 cell based antiviral assay
# [11] = system: Poliovirus (WM-3); experiment: microbe, parasite or virus in culture; format: cell-based; details: Enterovirus C, read-out: Poliovirus (WM-3) EC50 (uM)
# [12] = system: Dengue virus 2; experiment: Dengue virus 2 cell based antiviral assay
# [13] = system: MERS coronavirus; experiment: microbe, parasite or virus in culture; format: cell-based; details: Middle East respiratory syndrome-related coronavirus, read-out: MERS coronavirus EC50 (uM)
# [14] = system: HCV2a; experiment: microbe, parasite or virus in culture; format: cell-based, HCV; details: Hepatitis C virus, Huh7.5, read-out: HCV2a EC50
# [15] = system: Enterovirus 68; experiment: Enterovirus 68 cell based antiviral assay; details: Enterovirus D
# [16] = system: Adenovirus 5 (Adenoid 75); experiment: Adenovirus 5 cell based antiviral assay; details: Human mastadenovirus C
# [17] = Cell toxicity (CC50); format: cell-based; details: human, HuH-7 cells
# [18] = system: Enterovirus 71; experiment: Enterovirus 71 cell based antiviral assay; details: Enterovirus A
# [19] = system: HRV; experiment: Rhinovirus antiviral assay; format: cell-based; details: Human rhinovirus sp.
# [20] = system: EV71; experiment: EV71 antiviral assay; format: cell-based; details: Enterovirus A
# [21] = system: HCV replicon; details: HCV replicon system
# [22] = system: ER-localized calnexin; experiment: Calnexin co-staining as control for ER morphology; format: cell-based; details: co-stained with antibody to calnexin
# Description: (§2) To further confirm its mechanism of action the effect of (1) on PI-4 levels was determined in cells using immunofluorescence to monitor the intracellular localized pools of PI-4. The effect of (1) on intracellular pools of PIP2 was tested, which were predicted to be similarly sensitive to inhibition using (1). […] Uninfected Huh7.5 cells or HCV-infected Huh7.5 cells were used. Cells were treated with […], 500 nM or 1 uM concentrations of (1) or vehicle control, and analyzed by immunofluorescence with antibodies to PI(4)P or PI(4,5)P2 along with an antibody to calnexin to control for ER morphology.
# [23] = system: HCV; experiment: HCV standard replication assay; details: Hepatitis C virus, read-out: EC50 against HCV
# [24] = system: PI(4,5)P2; experiment: Immunofluorescence of intracellular PIP2 pools in cells; format: cell-based; details: Huh7.5 cells, uninfected or HCV-infected, 250 nm, 500 nM or 1 uM
# Description: as §2
# [25] = system: PI(4)P; experiment: Immunofluorescence of intracellular PI-4 pools in cells; format: cell-based; details: Huh7.5 cells, uninfected or HCV-infected, 250 nm, 500 nM or 1 uM
# Description: as §2
# [26] = in vitro; format: cell-based
SMILES,IC50 [1] [nM],IC50 [2] [nM],IC50 [3] [nM],IC50 [4] [nM],IC50 [5] [nM],EC50 [14] [nM],CC50 [17] [nM],also measured
COc1ccc(-c2sc(NC(=O)CC3CCOCC3)nc2C)cc1S(=O)(=O)Nc1ccc(F)cc1 [Compound S-170],< 100,> 10000,> 10000,< 100,> 10000,,,
COc1ccc(-c2sc(NC(=O)CC3CCOCC3)nc2C)cc1S(=O)(=O)Nc1ccc(O)cc1 [Compound S-227],,1000 to 10000,> 10000,< 100,> 10000,1 to 100,> 10000,EC50 [6]: 1 to 100 nM; EC50 [7]: 100 to 1000 nM; IC50 [8]: > 10000 nM; EC50 [9]: 100 to 1000 nM; EC50 [10]: > 10000 nM; EC50 [11]: 0.001 to 0.1 µM; EC50 [12]: > 10000 nM; EC50 [13]: > 10 µM; EC50 [15]: < 1 nM; EC50 [16]: > 10000 nM; EC50 [18]: 1 to 100 nM
COc1ccc(NS(=O)(=O)c2cc(-c3sc(NC4CCCCC4)nc3C)ccc2OC)c(C)c1 [Compound S-66],,,,,,1000 to 10000,> 10000,EC50 [19]: < 1 nM
COc1ccc(-c2sc(NC(C)C3CCOCC3)nc2C)cc1S(=O)(=O)NC1CCC(O)CC1 (centres unmarked) [Compound S-328],,,,,,,,EC50 [6]: 1 to 100 nM; EC50 [10]: > 10000 nM; EC50 [11]: 0.001 to 0.1 µM; EC50 ([19]; Table 5): 1 to 100 nM; EC50 [12]: > 10000 nM; EC50 [13]: > 10 µM; EC50 [15]: 1 to 100 nM; EC50 [16]: > 10000 nM; EC50 ([20]; Table 5): 1 to 100 nM; EC50 [18]: 1 to 100 nM
COc1ncc(-c2sc(NC(=O)CC3CCOCC3)nc2C)cc1S(=O)(=O)Nc1ccc(O)cc1 [Compound S-261],< 100,100 to 1000,,< 100,100 to 1000,1 to 100,> 10000,
COc1ncc(-c2sc(NC(=O)CC3CCOCC3)nc2C)cc1S(=O)(=O)Nc1cccc(C(=O)O)c1 [Compound S-265],< 100,1000 to 10000,> 10000,< 100,> 10000,,,
COc1ccc(-c2sc(NC(=O)C3CCCC3)nc2C)cc1S(=O)(=O)Nc1ccc(O)cc1 [Compound 1],,,,,,,,"selection of resistance [21]: resistance was not able to be selected; effects on the ER [22]: absence of any detectable effects on the ER; EC50 [23]: 365 nM; effect on intracellular pools of PIP2 (PI(4,5)P2) [24]: dose-dependent decrease; also recorded: decreases; effect on PI-4 (PI(4)P) levels in cells [25]: dose-dependent decrease; also recorded: decreases; CC50 [26]: > 10000 nM"
COc1ccc(-c2sc(N[C@H](C)C3CCCCC3)nc2C)cc1S(=O)(=O)N[C@H]1CC[C@H](O)CC1 [Compound S-193],,> 10000,,< 100,,,,IC50 [8]: > 10000 nM
COc1ccc(-c2sc(NCC3CCCCC3)nc2C)cc1S(=O)(=O)Nc1cccc(C(C)(C)C)c1 [Compound S-32],,,,,,1000 to 10000,> 10000,EC50 [7]: 1000 to 10000 nM; EC50 [19]: < 1 nM
COc1ccc(-c2sc(NC(=O)CC3CCOCC3)nc2C)cc1S(=O)(=O)Nc1ccc(O)cc1C [Compound S-231],,100 to 1000,> 10000,< 100,,,,IC50 [8]: > 10000 nM
COc1ccc(-c2sc(NC(C)(C)C)nc2C)cc1S(=O)(=O)N[C@H]1CC[C@H](O)CC1 [Compound S-216],,1000 to 10000,> 10000,< 100,,,,IC50 [8]: > 10000 nM
COc1ncc(-c2sc(NC(=O)CC3CCOCC3)nc2C)cc1S(=O)(=O)Nc1cccc(O)c1 [Compound S-259],< 100,1000 to 10000,,< 100,1000 to 10000,,,
COc1ccc(-c2sc(NC(=O)CCC3CCCC3)nc2C)cc1S(=O)(=O)NC1CCNCC1 [Compound S-160],,100 to 1000,> 10000,< 100,,,,IC50 [8]: > 10000 nM
COc1ccc(-c2sc(NCC3CCCCC3)nc2C)cc1S(=O)(=O)NC1CCCNC1 (centres unmarked) [Compound S-115],,,,,,100 to 1000,> 10000,
COc1ccc(-c2sc(NC(=O)CC3CCCC3)nc2C)cc1S(=O)(=O)Nc1ccc(O)cc1 [Compound S-1],,< 100,> 10000,< 100,> 10000,1 to 100,> 10000,IC50 [8]: > 10000 nM
COc1ccc(-c2sc(NC3CCCCCC3)nc2C)cc1S(=O)(=O)Nc1c(C)cccc1C [Compound S-98],> 10000,,> 10000,< 100,> 10000,1000 to 10000,> 10000,EC50 [6]: 1 to 100 nM; EC50 [9]: 1000 to 10000 nM; EC50 [10]: > 10000 nM; EC50 [11]: 0.001 to 0.1 µM; EC50 [19]: < 1 nM; EC50 [12]: > 10000 nM; EC50 [13]: > 10 µM; EC50 [15]: < 1 nM; EC50 [16]: > 10000 nM; EC50 [20]: < 1 nM; EC50 [18]: 1 to 100 nM
COc1ccc(-c2sc(NC(=O)CC3CCOCC3)nc2C)cc1S(=O)(=O)Nc1cc(C)cc(O)c1 [Compound S-169],< 100,> 10000,> 10000,< 100,> 10000,,,
COc1ccc(-c2sc(N[C@H](C)CC3CCCCC3)nc2C)cc1S(=O)(=O)NC1CCNCC1 [Compound S-145],100 to 1000,,> 10000,< 100,> 10000,,,
COc1ncc(-c2sc(NC(=O)CC3CCOCC3)nc2C)cc1S(=O)(=O)NC1CCCC(O)C1 (centres unmarked) [Compound S-263],,,,,,1 to 100,> 10000,
COc1ncc(-c2sc(NC(=O)CC3CCOCC3)nc2C)cc1S(=O)(=O)Nc1ccc(F)cc1F [Compound S-260],< 100,> 10000,> 10000,< 100,> 10000,100 to 1000,> 10000,
COc1ccc(-c2sc(N[C@H](C)C3CCCCC3)nc2C)cc1S(=O)(=O)NC1CCNCC1 [Compound S-147],100 to 1000,,> 10000,< 100,> 10000,,,
COc1ncc(-c2sc(NC(=O)CC3CCOCC3)nc2C)cc1S(=O)(=O)N[C@H]1CC[C@@H](O)CC1 [Compound S-262],< 100,100 to 1000,,< 100,> 10000,,,
COc1ccc(-c2sc(NC(C)C)nc2C)cc1S(=O)(=O)N[C@H]1CC[C@H](O)CC1 [Compound S-215],1000 to 10000,1000 to 10000,> 10000,< 100,,,,IC50 [8]: > 10000 nM
COc1ccc(-c2sc(NC(C)C3CCOCC3)nc2C)cc1S(=O)(=O)Nc1ccccc1Cl (centres unmarked) [Compound S-316],,,,,,,,EC50 [6]: 1 to 100 nM; EC50 [10]: 1000 to 10000 nM; EC50 [11]: 0.1 to 1 µM; EC50 ([19]; Table 5): 1 to 100 nM; EC50 [12]: 1000 to 10000 nM; EC50 [13]: 1 to 10 µM; EC50 [15]: 1 to 100 nM; EC50 [16]: > 10000 nM; EC50 ([20]; Table 5): 1 to 100 nM; EC50 [18]: 1 to 100 nM
COc1ccc(-c2sc(NC3CCCCC3)nc2C)cc1S(=O)(=O)Nc1ccc(O)cc1C [Compound S-106],,,,,,,> 10000,
